Common to all, as to format: biochemical
For one experiment, the target named is T1, TYK2 (Homo sapiens, UniProt P29597).
T1 construct: purchased Invitrogen PR8440C
Kind of experiment: Inhibition of TYK2 kinase, LANCE Ultra TR-FRET assay. To be noted: 4 nM TYK2, 2x ATP 30 μM, 15 min pre-incubation, 90 min reaction, 23° C., read-out: tyk IC50. As for the experimental part: (§1) Exemplary compounds were assayed to determine potency in inhibiting activity of JAK1-3 and TYK2 kinases by determining IC50 values.
(§2) The sources of test materials and equipment are as follows: JAK1 (Invitrogen, Cat. No PV4775), JAK2 (Invitrogen, Cat. No PV4210), JAK3 (Invitrogen, Cat. No PV4080), TYK2 (Invitrogen, Cat. No PR8440C), ATP (Sigma, Cat. No. A7699-1G), DMSO (Sigma, Cat. No. D2650), DTT (Sigma, Cat. No. 43815), 384 wells_compound plate (Greiner, Cat. No. 781280), 384 wells_assay plate (Perkin Elmer, Cat. No. 6007299), LANCE Ultra ULight™-JAK-1 peptide (Perkin Elmer, Cat. No. TRF0121), LANCET™ Eu-W1024 Anti-phosphotyrosine (PT66) (Perkin Elmer, Cat. No. AD0069), LANCET™ Detection Buffer(Perkin Elmer, Cat. No. CR97-100).
(§3) The concentrations of test compounds varied from 100 μM to 1.7 nM with 3-fold dilution, 11 points, in duplicates while the concentrations of the reference compound, Tofacitinib, varied from 1 μM to 0.017 nM with 3-fold dilution, 11 points, in duplicates.
(§4) The assay buffer contained 50 mM HEPES (pH 7.5), 0.01% Brij-35, 10 mM MgCl2, 1 mM EDTA, 2 mM DTT. Incubations were carried out at 23° C.
(§5) Prior to the assay, enzyme, peptide substrate and serially diluted test compounds were pre-incubated together in assay buffer (5 μL) for 15 minutes (peptide substrate concentration: 50 nM; JAK enzyme concentrations: 2 nM JAK1; […]; […] and 4 nM TYK2). And the assay was initiated by the addition of 5 μL assay buffer containing 2× final ATP concentration (these are the 2×ATP concentrations: 76 μM JAK1; 24 μM JAK2; 8 μM JAK3 and 30 μM TYK2). Following the 90-minute incubation, antibody conjugated with Eu is dissolved in detection buffer to add into wells and then incubated for 60 minutes. The 10 μL detection buffer contains EDTA to stop the enzymatic reaction. The plate is analyzed by Perkin Elmer Envision on TR-FRET mode. The high ratio of 665/615 represents no inhibition of kinase reaction while the low ratio of 665/615 represents complete inhibition of kinase reaction.
(§6) Curves are fit by XLFIT5 as inhibition rate % vs. log [compound concentration] using 4 parameters logistic model 205.
(§7) In the table, “A” indicates an IC50 of less than 100 nM, “B” indicates an IC50 range from 100 nM to 500 nM; “C” indicates an IC50 range from 500 nM to 2 μM; and “D” indicates an IC50 greater than 2 μM. Also, “na” indicates data is not available.
On the technique in general: In TR-FRET formats the signal depends on donor and acceptor labels being close together.

The next experiment concerns the target T2, JAK3 (Homo sapiens, UniProt P52333).
T2 construct: purchased Invitrogen PV4080
T2 sequence (P52333 1-1124): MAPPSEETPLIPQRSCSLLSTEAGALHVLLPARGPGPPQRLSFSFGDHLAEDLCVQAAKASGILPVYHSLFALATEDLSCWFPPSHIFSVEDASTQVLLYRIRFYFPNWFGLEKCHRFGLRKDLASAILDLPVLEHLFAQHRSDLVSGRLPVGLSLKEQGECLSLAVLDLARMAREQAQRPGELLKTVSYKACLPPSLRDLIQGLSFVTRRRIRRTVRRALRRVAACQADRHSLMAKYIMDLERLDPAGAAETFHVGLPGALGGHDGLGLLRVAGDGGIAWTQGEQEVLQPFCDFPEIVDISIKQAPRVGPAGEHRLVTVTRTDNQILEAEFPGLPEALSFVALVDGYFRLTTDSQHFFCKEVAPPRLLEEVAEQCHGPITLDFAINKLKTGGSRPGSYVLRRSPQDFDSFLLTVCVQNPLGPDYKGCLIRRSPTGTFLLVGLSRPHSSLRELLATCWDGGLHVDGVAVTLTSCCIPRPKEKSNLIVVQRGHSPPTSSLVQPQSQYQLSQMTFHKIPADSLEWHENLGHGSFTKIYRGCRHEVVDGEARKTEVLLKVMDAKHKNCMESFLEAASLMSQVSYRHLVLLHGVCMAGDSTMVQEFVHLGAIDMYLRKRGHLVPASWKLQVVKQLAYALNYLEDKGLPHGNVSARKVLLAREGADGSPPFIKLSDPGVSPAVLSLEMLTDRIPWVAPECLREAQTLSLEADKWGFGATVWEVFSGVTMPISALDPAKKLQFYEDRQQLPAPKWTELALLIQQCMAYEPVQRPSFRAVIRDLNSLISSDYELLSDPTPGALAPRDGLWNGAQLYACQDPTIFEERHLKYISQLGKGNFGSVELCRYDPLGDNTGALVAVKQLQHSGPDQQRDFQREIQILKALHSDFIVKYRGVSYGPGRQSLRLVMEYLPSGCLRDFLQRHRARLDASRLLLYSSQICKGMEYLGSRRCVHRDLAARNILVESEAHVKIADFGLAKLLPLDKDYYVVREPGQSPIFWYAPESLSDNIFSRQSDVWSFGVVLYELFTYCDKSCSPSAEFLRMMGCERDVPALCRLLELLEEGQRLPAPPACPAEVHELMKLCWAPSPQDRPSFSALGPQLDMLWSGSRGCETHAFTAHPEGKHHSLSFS
Kind of experiment: Inhibition of JAK3 kinase, LANCE Ultra TR-FRET assay. To be noted: 2x ATP 8 μM, 15 min pre-incubation, 90 min reaction, 23° C. As for the experimental part: as §1, §2, §3, §4, §5, §6, §7

A further experiment addresses T3, JAK2 (Homo sapiens, UniProt O60674).
T3 construct: purchased Invitrogen PV4210
Kind of experiment: Inhibition of JAK2 kinase, LANCE Ultra TR-FRET assay. Particulars: 2x ATP 24 μM, 15 min pre-incubation, 90 min reaction, 23° C. As for the experimental part: as §1, §2, §3, §4, §5, §6, §7

A further experiment concerns the target T4, JAK1 (Homo sapiens, UniProt P23458).
T4 construct: purchased Invitrogen PV4775
Kind of experiment: Inhibition of JAK1 kinase, LANCE Ultra TR-FRET assay. Particulars: 2 nM JAK1, 2x ATP 76 μM, 15 min pre-incubation, 90 min reaction, 23° C. As for the experimental part:
as §1, §2, §3, §4, §5, §6, §7

Bounds are passed on as bounds.

T4 sequence (P23458 whole entry): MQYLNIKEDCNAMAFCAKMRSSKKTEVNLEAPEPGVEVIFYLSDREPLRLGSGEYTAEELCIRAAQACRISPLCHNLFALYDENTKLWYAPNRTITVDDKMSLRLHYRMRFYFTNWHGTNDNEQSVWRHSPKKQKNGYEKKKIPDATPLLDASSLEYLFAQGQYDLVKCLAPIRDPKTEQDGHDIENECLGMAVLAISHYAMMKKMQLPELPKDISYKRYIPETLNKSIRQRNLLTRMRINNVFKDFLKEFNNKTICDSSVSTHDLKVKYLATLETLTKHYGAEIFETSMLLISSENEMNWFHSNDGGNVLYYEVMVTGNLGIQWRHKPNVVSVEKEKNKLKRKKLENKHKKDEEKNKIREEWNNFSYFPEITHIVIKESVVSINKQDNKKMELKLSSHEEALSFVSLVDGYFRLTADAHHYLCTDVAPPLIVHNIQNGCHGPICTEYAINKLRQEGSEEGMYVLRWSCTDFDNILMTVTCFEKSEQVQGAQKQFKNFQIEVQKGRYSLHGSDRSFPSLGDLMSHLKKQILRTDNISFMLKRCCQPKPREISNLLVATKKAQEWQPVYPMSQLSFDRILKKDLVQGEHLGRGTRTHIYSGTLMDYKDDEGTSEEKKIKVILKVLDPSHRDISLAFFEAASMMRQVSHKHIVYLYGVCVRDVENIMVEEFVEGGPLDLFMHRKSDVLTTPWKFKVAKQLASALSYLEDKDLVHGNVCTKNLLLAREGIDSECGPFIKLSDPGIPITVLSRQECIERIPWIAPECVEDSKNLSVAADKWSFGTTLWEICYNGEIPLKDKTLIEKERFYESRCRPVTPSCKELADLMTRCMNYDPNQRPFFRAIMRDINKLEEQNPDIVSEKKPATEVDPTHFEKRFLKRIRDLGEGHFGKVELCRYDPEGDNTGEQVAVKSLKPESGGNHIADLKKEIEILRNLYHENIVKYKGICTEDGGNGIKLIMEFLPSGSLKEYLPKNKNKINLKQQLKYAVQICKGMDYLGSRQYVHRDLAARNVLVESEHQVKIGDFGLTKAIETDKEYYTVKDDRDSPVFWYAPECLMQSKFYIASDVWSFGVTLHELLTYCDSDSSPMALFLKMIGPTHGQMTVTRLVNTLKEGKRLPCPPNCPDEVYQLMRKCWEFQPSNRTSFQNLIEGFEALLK
T1 sequence (P29597 whole entry): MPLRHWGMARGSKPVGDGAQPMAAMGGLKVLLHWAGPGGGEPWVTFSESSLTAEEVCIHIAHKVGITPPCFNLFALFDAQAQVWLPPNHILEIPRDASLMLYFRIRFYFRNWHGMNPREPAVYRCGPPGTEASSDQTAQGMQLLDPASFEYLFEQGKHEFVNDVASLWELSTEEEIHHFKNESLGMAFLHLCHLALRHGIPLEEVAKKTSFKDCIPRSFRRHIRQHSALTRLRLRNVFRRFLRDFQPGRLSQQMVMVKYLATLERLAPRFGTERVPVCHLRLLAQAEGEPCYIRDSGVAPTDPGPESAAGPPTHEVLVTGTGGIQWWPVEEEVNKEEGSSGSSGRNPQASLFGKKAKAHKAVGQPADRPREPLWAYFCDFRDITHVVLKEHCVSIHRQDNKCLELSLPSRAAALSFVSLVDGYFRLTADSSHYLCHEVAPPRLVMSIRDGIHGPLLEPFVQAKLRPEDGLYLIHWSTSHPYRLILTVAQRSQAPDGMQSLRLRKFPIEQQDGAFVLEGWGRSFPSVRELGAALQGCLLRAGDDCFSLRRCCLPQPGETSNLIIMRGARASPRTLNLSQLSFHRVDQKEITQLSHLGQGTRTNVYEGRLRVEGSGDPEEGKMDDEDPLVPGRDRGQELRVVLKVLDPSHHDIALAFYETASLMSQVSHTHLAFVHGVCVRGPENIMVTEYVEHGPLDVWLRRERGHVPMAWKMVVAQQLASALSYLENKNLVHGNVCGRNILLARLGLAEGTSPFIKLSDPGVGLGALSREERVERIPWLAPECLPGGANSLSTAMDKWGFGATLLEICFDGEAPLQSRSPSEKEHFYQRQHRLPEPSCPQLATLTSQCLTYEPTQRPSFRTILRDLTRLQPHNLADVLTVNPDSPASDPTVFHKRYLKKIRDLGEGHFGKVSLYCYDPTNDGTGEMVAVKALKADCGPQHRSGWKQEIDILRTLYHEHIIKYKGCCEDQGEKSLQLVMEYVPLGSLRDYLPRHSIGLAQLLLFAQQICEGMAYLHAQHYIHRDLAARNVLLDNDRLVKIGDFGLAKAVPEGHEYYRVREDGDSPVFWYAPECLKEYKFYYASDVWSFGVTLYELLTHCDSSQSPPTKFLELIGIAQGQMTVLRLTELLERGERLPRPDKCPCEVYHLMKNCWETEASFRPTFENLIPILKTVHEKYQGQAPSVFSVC
T3 sequence (O60674 whole entry): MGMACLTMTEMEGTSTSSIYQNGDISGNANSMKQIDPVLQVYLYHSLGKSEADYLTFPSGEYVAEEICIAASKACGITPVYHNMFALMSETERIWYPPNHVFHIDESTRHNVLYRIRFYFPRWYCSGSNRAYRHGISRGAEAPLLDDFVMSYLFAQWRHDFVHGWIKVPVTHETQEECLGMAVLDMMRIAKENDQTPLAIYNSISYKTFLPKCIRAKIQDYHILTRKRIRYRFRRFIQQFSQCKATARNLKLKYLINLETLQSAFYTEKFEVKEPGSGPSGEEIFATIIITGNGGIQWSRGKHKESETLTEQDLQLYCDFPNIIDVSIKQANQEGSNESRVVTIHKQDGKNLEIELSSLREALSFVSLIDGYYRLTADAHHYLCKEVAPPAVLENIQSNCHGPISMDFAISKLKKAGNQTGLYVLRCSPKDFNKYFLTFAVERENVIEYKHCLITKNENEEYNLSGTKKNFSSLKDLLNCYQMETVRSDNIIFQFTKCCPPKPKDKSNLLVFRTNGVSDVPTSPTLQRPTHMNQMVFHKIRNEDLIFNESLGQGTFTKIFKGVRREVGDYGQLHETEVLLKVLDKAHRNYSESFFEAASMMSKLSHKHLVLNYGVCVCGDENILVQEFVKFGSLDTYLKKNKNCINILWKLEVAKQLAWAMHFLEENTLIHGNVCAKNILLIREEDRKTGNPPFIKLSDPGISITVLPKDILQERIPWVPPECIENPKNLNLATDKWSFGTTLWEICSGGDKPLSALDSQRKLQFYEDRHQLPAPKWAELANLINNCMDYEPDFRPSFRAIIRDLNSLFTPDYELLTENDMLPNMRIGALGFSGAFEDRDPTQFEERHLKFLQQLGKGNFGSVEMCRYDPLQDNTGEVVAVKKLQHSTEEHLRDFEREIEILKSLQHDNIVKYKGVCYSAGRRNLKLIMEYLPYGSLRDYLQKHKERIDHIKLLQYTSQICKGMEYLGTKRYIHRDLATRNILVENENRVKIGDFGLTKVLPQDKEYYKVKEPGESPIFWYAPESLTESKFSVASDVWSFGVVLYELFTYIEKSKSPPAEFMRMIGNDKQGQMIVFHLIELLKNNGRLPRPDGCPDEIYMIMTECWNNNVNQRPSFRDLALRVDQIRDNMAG

In the case of `O=C(NC[C@@H]1CC[C@H]1O)c1noc2c1CN(c1ncnc3[nH]ccc13)CC2` (relative stereo) [Compound 150-1], the concentration for half-maximal inhibition (IC50) at TYK2 was above 2000 nM; against JAK3, 100 to 500 nM; against JAK2, 500 to 2000 nM; at JAK1, 500 to 2000 nM.
Turning to `O=C(NC[C@@H]1CC[C@@H]1O)c1noc2c1CN(c1ncnc3[nH]ccc13)CC2` (relative stereo) [Compound 150-2], the IC50 on TYK2 is above 2000 nM; against JAK3, below 100 nM; against JAK2, 100 to 500 nM; against JAK1, 100 to 500 nM.
For the molecule `O=C(NCCC(F)(F)F)c1nn(C2CCNCC2)c2c1CN(c1ncnc3[nH]ccc13)CC2` [Compound 101], the concentration for half-maximal inhibition (IC50) on TYK2 was above 2000 nM; against JAK3, 500 to 2000 nM; against JAK2 it was above 2000 nM; against JAK1, above 2000 nM.
Take `O=C(NCCC(F)(F)F)c1nn(CCc2cccnc2)c2c1CN(c1ncnc3[nH]ccc13)CC2` [Compound 106]: the concentration for half-maximal inhibition (IC50) was above 2000 nM at TYK2, 100 to 500 nM on JAK3, above 2000 nM at JAK2 and above 2000 nM against JAK1.
Turning to `Cn1nc(C(=O)NCCC(F)(F)F)c2c1CCN(c1ncnc3[nH]ccc13)C2` [Compound 107], the IC50 on TYK2 was 500 to 2000 nM; at JAK3, below 100 nM; on JAK2, 100 to 500 nM; at JAK1 it was below 100 nM.
Take `O=C(NCCC(F)(F)F)c1nn(CCCc2ccccn2)c2c1CN(c1ncnc3[nH]ccc13)CC2` [Compound 108]: the 50% inhibitory concentration (IC50) is above 2000 nM at TYK2, 100 to 500 nM against JAK3, above 2000 nM on JAK2 and above 2000 nM at JAK1.
`O=C(NCCC(F)(F)F)c1nn(Cc2ccccc2)c2c1CN(c1ncnc3[nH]ccc13)CC2` [Compound 111]: the IC50 is above 2000 nM at TYK2, below 100 nM against JAK3, 500 to 2000 nM against JAK2 and 100 to 500 nM against JAK1.
The corresponding values for `CCn1nc(C(=O)NCCC(F)(F)F)c2c1CCN(c1ncnc3[nH]ccc13)C2` [Compound 112] are above 2000 nM, below 100 nM, 500 to 2000 nM and 100 to 500 nM.
For `C=CCn1nc(C(=O)NCCC(F)(F)F)c2c1CCN(c1ncnc3[nH]ccc13)C2` [Compound 113], the IC50 at TYK2 is 500 to 2000 nM; against JAK3, below 100 nM; on JAK2 it was 100 to 500 nM; on JAK1, 100 to 500 nM.
Regarding `O=C(NCCC(F)(F)F)c1nn(-c2ccccc2)c2c1CN(c1ncnc3[nH]ccc13)CC2` [Compound 114], the IC50 was 500 to 2000 nM at TYK2, below 100 nM at JAK3, 500 to 2000 nM against JAK2 and 100 to 500 nM at JAK1.
Regarding `O=C(NCCC(F)(F)F)c1nn(CCCc2ccccc2)c2c1CN(c1ncnc3[nH]ccc13)CC2` [Compound 115], the IC50 on TYK2 is above 2000 nM; on JAK3, 100 to 500 nM; against JAK2 it was above 2000 nM; on JAK1 it was 500 to 2000 nM.
With `O=C(NCCC(F)(F)F)c1nn(CCCCc2ccccc2)c2c1CN(c1ncnc3[nH]ccc13)CC2` [Compound 116], the IC50 is above 2000 nM at TYK2, 100 to 500 nM against JAK3, above 2000 nM on JAK2 and 100 to 500 nM at JAK1.
Consider `O=C(NCCC(F)(F)F)c1nn(C2CCC2)c2c1CN(c1ncnc3[nH]ccc13)CC2` [Compound 117], for which the IC50 on TYK2 was above 2000 nM; at JAK3 it was below 100 nM; against JAK2 it was 500 to 2000 nM; at JAK1, 100 to 500 nM.
The corresponding values for `O=C(NCCC(F)(F)F)c1nn(C2CCOCC2)c2c1CN(c1ncnc3[nH]ccc13)CC2` [Compound 118] are above 2000 nM, 100 to 500 nM, above 2000 nM and 500 to 2000 nM.
On to `CCn1nc(C(=O)CC#N)c2c1CCN(c1ncnc3[nH]ccc13)C2` [Compound 119], for which the IC50 against JAK3 and at JAK2 was 500 to 2000 nM throughout.
In the case of `N#Cc1ccc(-c2nn(CCO)c3c2CN(c2ncnc4[nH]ccc24)CC3)cc1` [Compound 120], the IC50 lay in the range of 500 to 2000 nM against JAK3 and 100 to 500 nM against JAK2.
On to `COC(=O)[C@H]1C[C@H](NC(=O)c2nn(C)c3c2CN(c2ncnc4[nH]ccc24)CC3)C1` [Compound 121], for which the half-inhibitory concentration (IC50) on TYK2, at JAK3, against JAK2 and on JAK1 was above 2000 nM throughout.
In the case of `CNC(=O)[C@H]1C[C@H](NC(=O)c2nn(C)c3c2CN(c2ncnc4[nH]ccc24)CC3)C1` [Compound 122], the half-maximal inhibitory concentration (IC50) on TYK2, at JAK3, against JAK2 and on JAK1 was above 2000 nM throughout.
As to `Cn1nc(C(=O)N[C@H]2C[C@H](C(=O)NCCC(F)(F)F)C2)c2c1CCN(c1ncnc3[nH]ccc13)C2` [Compound 124], the concentration for half-maximal inhibition (IC50) is above 2000 nM at TYK2, 500 to 2000 nM against JAK3, above 2000 nM at JAK2 and 500 to 2000 nM against JAK1.
Regarding `Cn1nc(C(=O)N[C@H]2C[C@H](C(=O)NS(C)(=O)=O)C2)c2c1CCN(c1ncnc3[nH]ccc13)C2` [Compound 125], the concentration for half-maximal inhibition (IC50) was above 2000 nM on TYK2, 100 to 500 nM on JAK3, 500 to 2000 nM on JAK2 and 100 to 500 nM against JAK1.
As for `CCS(=O)(=O)NC(=O)[C@H]1C[C@H](NC(=O)c2nn(C)c3c2CN(c2ncnc4[nH]ccc24)CC3)C1` [Compound 126], the half-maximal inhibitory concentration (IC50) was above 2000 nM on TYK2, 100 to 500 nM on JAK3, 500 to 2000 nM against JAK2 and 100 to 500 nM on JAK1.
As to `CCCS(=O)(=O)NC(=O)[C@H]1C[C@H](NC(=O)c2nn(C)c3c2CN(c2ncnc4[nH]ccc24)CC3)C1` [Compound 127], the IC50 was above 2000 nM at TYK2, 100 to 500 nM against JAK3, 500 to 2000 nM at JAK2 and 100 to 500 nM against JAK1.
As to `Cn1nc(C(=O)N[C@H]2C[C@H](CC#N)C2)c2c1CCN(c1ncnc3[nH]ccc13)C2` [Compound 128], the IC50 at TYK2 is above 2000 nM; on JAK3, 500 to 2000 nM; against JAK2 it was 500 to 2000 nM; against JAK1 it was 500 to 2000 nM.

A word on the IC50: it is the point on the concentration scale where inhibition reaches its midpoint.

The record behind these values is patent US12286443B2, “Bycyclic JAK inhibitors and uses thereof” (Insilico Medicine IP Limited, priority 2019, dated 2025).
